The values that follow come from patent publication US20110190379A1 (priority 2008, published 2011).

One assay has as its system wheat leaves. Conditions: in vivo.
Assay [1] deals with Arabidopsis seed germination. It counts as in vivo.
Assay [2] concerns F. graminearum. It counts as in vivo.
Assay [3] deals with F. graminearum. To be noted: in vivo.
Assay [4] has as its system F. graminearum. It counts as in vivo. This is another data set of the same source.
Assay [5] relates to F. graminearum. Conditions: in vivo. The source holds these as a separate data set.

Values joined by “and” are separate entries in the source; they are usually repeats but may differ in a detail not shown here. Equal values may be shown once. Read-outs that look alike come from different tables or passages of the source.

`CC1=C[C@H]2O[C@@H]3[C@H](O)C[C@](C)([C@@]2(CO)[C@H](O)C1=O)[C@]31CO1` [DON, deoxynivalenol]: in the assay on wheat leaves, the “cell death about the inoculation point (trypan blue)” value is listed as “extensive cell death”; the “size of lesions (DON-induced cell death)” value was 0.127 cm^2 and 0.066 cm^2. For the same molecule, the “effect on seed germination” value in assay [1] (FIG. 6) was “inhibits seed germination”.
In the case of `C=C1C[C@]23C[C@@]1(O)CC[C@H]2[C@@]12C=C[C@H](O)[C@@](C)(C(=O)O1)[C@H]2[C@@H]3C(=O)O` [GA, Gibberellic Acid], in assay [1] (FIG. 7), the “effect on DON inhibition of seed germination” value was “can reverse the inhibitory effect of DON”.
On to `C=C` [ethylene], for which the lesion size entry is on record as “did not markedly alter” in the assay on F. graminearum [2] (wheat (Hobbit 'sib') leaves, ethephon 50 mM or silver thiosulphate 150 μm in agar) and “did not markedly alter” in the assay on F. graminearum [4] (barley (Golden promise) leaves, ethephon 50 mM or silver thiosulphate 150 μm in agar). Also, the conidial production entry with F. graminearum [2] (wheat leaves, 7 days, ET P=0.05, reduced ET perception (silver) P=0.003) was “significantly greater”; with F. graminearum [3] it was “enhanced susceptibility”; in the assay with F. graminearum [4] (barley leaves, 7 days, ET P=0.005, reduced ET perception (silver) P=0.043) it was “significantly greater”. For the same molecule, in the assay with F. graminearum [3], the disease severity entry is “enhanced susceptibility”.
Regarding silver ions, in the assay on F. graminearum [2] (in vivo), the conidial production entry is listed as “significantly reduced” and the lesion size entry was “did not markedly alter”. Also, in the assay on F. graminearum [5], the “AUDPC versus water treated heads” value is “significantly lower” and the “disease development reduced versus water” value is recorded as 12-88%. Moreover, in the assay with F. graminearum [4] (in vivo), the conidial production result is “significantly reduced” and the lesion size entry is “did not markedly alter”.
Take silver thiosulphate: in the assay with F. graminearum [3], the conidial production result was “enhanced resistance” and the disease severity result was “enhanced resistance”.
